Here are results for eight compounds from patent US20180282297A1, “POLYMORPHS OF 3-(4-AMINO-1-OXOISOINDOLIN-2-YL)PIPERIDINE-2,6-DIONE” (Shenzhen Jingtai Technology Co., Ltd., priority 2017, published 2018).

SMILES strings stand for the structures. “Also recorded” adds a separate entry of the source. Where two headings read alike, the source gives them in different places.

A short description of data set [1]: Stability of polymorphs in solution (suspension in solvent, XRPD of the solid). Format: physicochemical. To be noted: for Stability in solution: polymorphic form: ethanol, acetonitrile, tetrahydrofuran, ethyl acetate, and dioxane, 20° C. for 24 hours; for Stability in solution: polymorph converted (Cv.) to: suspension kept at 20° C. for 24 hours. The method, then: 15 mg of the polymorph obtained in Example 1 was placed in a 2 mL container. 1 mL of the each of the following solvents was added: methanol, ethanol, acetone, acetonitrile, tetrahydrofuran, nitromethane, ethyl acetate, or dioxane. The container was sonicated to dissolve Compound A. The resulting supersaturated suspension was kept at 20° C. for 24 hours. After centrifugation, the supernatant was removed, and the solid was dried at 45° C. for 2 hours. The XRPD of the solid was measured.
15 mg of the polymorph obtained in Example 4 was placed in a 2 mL container. 1 mL of the each of the following solvents was added: methanol, ethanol, acetone, acetonitrile, tetrahydrofuran, ethyl acetate, dioxane, or water. The container was sonicated to dissolve Compound A. The resulting supersaturated suspension was kept at 20° C. for 24 hours. After centrifugation, the supernatant was removed, and the solid was dried at 45° C. for 2 hours. The XRPD of the solid was measured.

A short description of data set [2]: Thermal stability (polymorph conversion on heating, XRPD). Format: physicochemical. How it is done: In one embodiment, Form DH converts to a different polymorph at an elevated temperature (e.g., 170° C. or higher). In one embodiment, when heated to 170° C., Form DH converts to a polymorph characterized by an XRPD pattern substantially similar to that set forth in FIG. 10 (“Form F”). In one embodiment, when heated to 190° C., Form DH converts to a polymorph characterized by an XRPD pattern substantially similar to that set forth in FIG. 11 (“Form A”).
In one embodiment, Form α converts to a different polymorph at an elevated temperature (e.g., 230° C. or higher). In one embodiment, when heated to 230° C., Form α converts to a polymorph characterized by an XRPD pattern substantially similar to that set forth in FIG. 26 (“Form A”).

Data set [3] can be described thus: Hygroscopicity, dynamic vapor sorption (DVS). It is filed as physicochemical. Particulars: 25° C., 1~95% RH. The method, then: About 3 mg Form DH prepared in Example 1 was subject to dynamic vapor sorption analysis with a VTI-SA+ type dynamic vapor sorption analyzer (US TA Instruments Company). The temperature was 25° C., and the range of the relative humidity was 1-95%.
About 3 mg Form α prepared in Example 4 was subject to Dynamic Vapor Sorption analysis with a VTI-SA+ type dynamic vapor sorption analyzer (US TA Instruments Company). The temperature was 25° C., and the range of the relative humidity was 1-95%.

The nature of data set [4]: Powder dissolution study in water. To be noted: 500 mg in 500 mL water, 50 rpm, up to 300 min. Format: physicochemical. The method, then:
Samples (2 mL) were collected at 1 min, 2 min, 5 min, 10 min, 15 min, 20 min, 30 min, 40 min, 50 min, 60 min, 80 min, 100 min, 120 min, 150 min, 180 min, 210 min, 240 min, 270 min, and 300 min. Water (2 mL) was added each time when a sample was taken. The XRPD of the solid samples were measured.

Data set [5] in a line: Crystallinity of polymorphs. It is filed as physicochemical. To be noted: polymorphs of the application. The method, then:
XRPD patterns of the polymorphs obtained in the Examples were collected on a D/MAX 2500 diffractometer using the following setting: Cu Kα radiation λ 1.5418 Å, 40 kV, 200 mA, […] 2-40° at 8°/min.

Data set [6] is described as follows: Accelerated stability studies (storage, XRPD).
Method: 10 mg of Form DH or Form α of the present application was each put in a testing tube. The testing tubes were placed separately in sealed storage bags. The bags were stored under 40° C./75% RH or RT/P2O5. Samples of the polymorph were collected at day 1, day 3, day 5, day 7, day 14, day 21, and day 28 for XRPD measurement.
For data set [7] the following is noted: cited from earlier work.
For data set [8] the following is noted: cited from earlier work; for Hygroscopicity: Wt. increase: 5~95% RH.
For data set [9] the following is noted: comparison polymorphs, cited from earlier work.
For data set [10] the following is noted: in acetone; comparison polymorphs; listed as B; cited from earlier work.
For data set [11] the following is noted: comparison polymorphs, cited from earlier work. The source holds these as a separate data set.
The nature of data set [12]: Study of polymorphic forms of Compound A stirred in water (XRPD). Particulars: 300 rpm. Format: physicochemical. The method, then: 600 mg Compound A was placed in a 100 mL container. After 40 mL water was added, the container was stirred at 300 rpm at 20° C. After 12 hours, a sample was taken from the container and an XRPD was measured. […] The XRPD, TG, and DSC of Form E are shown in FIGS. 12, 13, and 14, respectively.
600 mg Compound A was placed in a 100 mL container. After 40 mL water was added, the container was stirred at 300 rpm at 25° C. After 48 hours, a sample was taken from the container and an XRPD was measured. […] A sample taken after 168 hours at 25° C. still had the same XRPD as the Form E polymorph described in Chinese Patent No. 1871003.
600 mg Compound A was placed in a 100 mL container. After 40 mL water was added, the container was stirred at 300 rpm at 15° C. After 10 hours, a sample was taken from the container and an XRPD was measured.

In the case of `Nc1cccc2c1CN(C1CCC(=O)NC1=O)C2=O` (stereo not drawn) [Form α, 3-(4-amino-1-oxoisoindolin-2-yl)piperidine-2,6-dione], the “Stability in solution: polymorphic form” value in data set [1] (in methanol, acetone) is recorded as “stable; also recorded: maintained its polymorphic form as Form α”. The “Stability in solution: polymorph converted (Cv.) to” value (shortened to “Stability in solution … (Cv.) to”) in [1] (in water) was “Form DH”. For the same compound, the “Thermal stability: polymorph converted (Cv.) to” value (“Thermal stability … (Cv.) to” below) in data set [2] (heated to 230° C.) is “Form A”. In addition, the “Hygroscopicity: crystal form after DVS” value is “remained unchanged” in data set [3] and “No change” in data set [3] (listed as α). Besides, in [3] (listed as α), the “Hygroscopicity: Wt. increase” value is reported as “No significant”. The “Dissolution: crystal conversion (Cv.) during powder dissolution” value (from here on “Dissolution: crystal conversion”) in data set [4] is listed as “Form E”. For the same compound, the Crystallinity result in data set [5] was “Good”. Moreover, the “Accelerated stability (stable, or polymorph converted to)” value in [6] (28 days at RT/P2O5) is given as “did not change”; in data set [6] (28 days at RT/P2O5, listed as α), “Stable after”.

In the case of `Nc1cccc2c1CN(C1CCC(=O)NC1=O)C2=O` (centres unmarked) [Form B, 3-(4-amino-1-oxoisoindolin-2-yl)piperidine-2,6-dione], the Accelerated stability result in [7] (85 days at 40° C./93% RH) and in [7] (85 days at RT/0% RH) was “Stable for 85” in each case. Moreover, the “Hygroscopicity: Wt. increase” value in data set [8] is reported as “No significant”. Also, in data set [9] (listed as B), the Crystallinity result is listed as “Good”. In data set [10], the “Stability in solution … (Cv.) to” value is on record as “THF, to Form C”. The “Thermal stability … (Cv.) to” value in data set [11] (at 175° C.) was “Cv. to Form A at”.

In the case of `Nc1cccc2c1CN(C1CCC(=O)NC1=O)C2=O` (centres unmarked) [Form DH, 3-(4-amino-1-oxoisoindolin-2-yl)piperidine-2,6-dione], the “Stability in solution … (Cv.) to” value in [1] (in acetone) is “Form C”; in [1] (in acetone, listed as DH), “Form C in”. Moreover, in data set [1] (in water, methanol), the “Stability in solution: polymorphic form” value was “maintained its polymorphic form as Form DH; also recorded: stable”. Moreover, the “Thermal stability … (Cv.) to” value in [2] (heated to 170° C.) was “Form F”; in data set [2] (heated to 190° C.), “Form A”. Moreover, the “Hygroscopicity: Wt. increase” value in [3] is recorded as “No weight increase”; in data set [3] (listed as DH), “No significant”. The “Hygroscopicity: crystal form after DVS” value in data set [3] is on record as “remained unchanged”; in [3] (listed as DH) it was “No change”. For the same compound, in data set [4], the “Dissolution: crystal conversion” value is reported as “did not change”. The Crystallinity entry in data set [5] is “Good”. Further, the “Accelerated stability (stable, or polymorph converted to)” value is reported as “stable” in data set [6] (28 days at 40° C./75% RH) and “Stable” in data set [6] (28 days at 40° C./75% RH, listed as DH).

`Nc1cccc2c1CN(C1CCC(=O)NC1=O)C2=O` (centres unmarked) [Compound A, 3-(4-amino-1-oxoisoindolin-2-yl)piperidine-2,6-dione]: the “Dissolution: crystal conversion” value in [4] is “Form E”. Moreover, the “Polymorphic form by XRPD after stirring in water” value is recorded as “Form DH” in [12] (15° C., 34 hours); “Form E” in data set [12] (15° C., after 10 hours); “Form DH” in [12] (20° C., 108 hours); “Form E” in [12] (20° C., after 12 hours); “Form E” in data set [12] (25° C., after 48 hours); “Form E” in [12] (25° C., after 168 hours). In addition, the “Hygroscopicity: Wt. increase” value in data set [8] was “No significant”. For the same compound, the Crystallinity entry in data set [9] is reported as “Good”. For the same compound, the Thermal stability entry in data set [11] (temperature not given) is given as “No Cv”.

Take `Nc1cccc2c1CN(C1CCC(=O)NC1=O)C2=O` (centres unmarked) [Form E, 3-(4-amino-1-oxoisoindolin-2-yl)piperidine-2,6-dione]: in [9] (listed as E), the Crystallinity entry was “Good”.

As for `Nc1cccc2c1CN(C1CCC(=O)NC1=O)C2=O` (centres unmarked) [Form H, 3-(4-amino-1-oxoisoindolin-2-yl)piperidine-2,6-dione], the Crystallinity entry in data set [9] is listed as “relatively poor”.

With `Nc1cccc2c1CN(C1CCC(=O)NC1=O)C2=O` (centres unmarked) [Form D, 3-(4-amino-1-oxoisoindolin-2-yl)piperidine-2,6-dione], the Crystallinity result in data set [9] (listed as D) is reported as “Good”.

Take `Nc1cccc2c1CN(C1CCC(=O)NC1=O)C2=O` (centres unmarked) [Form C, 3-(4-amino-1-oxoisoindolin-2-yl)piperidine-2,6-dione]: the “Hygroscopicity: Wt. loss” value in data set [8] (at 95% RH) is listed as “by 6.03% at”. The Crystallinity result in [9] (listed as C) is reported as “Good”.
